≈ marks a conversion by molar mass, not a printed value.
Tests used:
Format in all cases: cell-based
[1] = system: Mannheimia haemolytica MH 6357 (M7/2, reference strain, cattle infection strain); assay: MIC, broth-microdilution (CLSI VET01-A4), strain MH 6357; settings: Mannheimia haemolytica strain MH 6357, broth-microdilution; unit assumed
Summary of the method: (§1)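 Compounds were serially diluted twofold in microdilution trays. Growth was judged by eye, and the MIC was the lowest concentration showing no turbidity. Results were interpreted per CLSI VET01-S3.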

[2] = system: Mannheimia haemolytica MH 6374 (ATCC 33396, reference strain); assay: MIC, broth-microdilution (CLSI VET01-A4), strain MH 6374; settings: Mannheimia haemolytica strain MH 6374, broth-microdilution; unit assumed
Summary of the method: as §1

[3] = system: Mannheimia haemolytica MH 10720 (154, BRD field isolate); assay: MIC, broth-microdilution (CLSI VET01-A4), strain MH 10720; settings: Mannheimia haemolytica strain MH 10720, broth-microdilution; unit assumed
Summary of the method: as §1

[4] = system: Mannheimia haemolytica MH 12587 (1071, BRD field isolate, macrolide-resistance: erm+, E+); assay: MIC, broth-microdilution (CLSI VET01-A4), strain MH 12587; settings: Mannheimia haemolytica strain MH 12587, broth-microdilution; unit assumed
Summary of the method: as §1

[5] = system: Mannheimia haemolytica MH 13065 (XB0446-6003.9, BRD field isolate); assay: MIC, broth-microdilution (CLSI VET01-A4), strain MH 13065; settings: Mannheimia haemolytica strain MH 13065, broth-microdilution; unit assumed
Summary of the method: as §1

[6] = system: Mannheimia haemolytica MH 13093 (XB0472-6014.1, BRD field isolate); assay: MIC, broth-microdilution (CLSI VET01-A4), strain MH 13093; settings: Mannheimia haemolytica strain MH 13093, broth-microdilution; unit assumed
Summary of the method: as §1

[7] = system: Pasteurella multocida PM 6267 (P 2225 (L386), reference strain, mouse infection strain); assay: MIC, broth-microdilution (CLSI VET01-A4), strain PM 6267; settings: Pasteurella multocida strain PM 6267, broth-microdilution; unit assumed
Summary of the method: as §1

[8] = system: Pasteurella multocida PM 6391 (ATCC 43137, reference strain); assay: MIC, broth-microdilution (CLSI VET01-A4), strain PM 6391; settings: Pasteurella multocida strain PM 6391, broth-microdilution; unit assumed
Summary of the method: as §1

[9] = system: Pasteurella multocida PM 10775 (080130003051, BRD field isolate); assay: MIC, broth-microdilution (CLSI VET01-A4), strain PM 10775; settings: Pasteurella multocida strain PM 10775, broth-microdilution; unit assumed
Summary of the method: as §1

[10] = system: Pasteurella multocida PM 12080 (IV102277-0093, BRD field isolate); assay: MIC, broth-microdilution (CLSI VET01-A4), strain PM 12080; settings: Pasteurella multocida strain PM 12080, broth-microdilution; unit assumed
Summary of the method: as §1

Row | SMILES | MIC MH 6357 [1] [µg/mL] | MIC MH 6374 [2] [µg/mL] | MIC MH 10720 [3] [µg/mL] | MIC MH 12587 [4] [µg/mL] | MIC MH 13065 [5] [µg/mL] | MIC MH 13093 [6] [µg/mL] | MIC PM 6267 [7] [µg/mL] | MIC PM 6391 [8] [µg/mL] | MIC PM 10775 [9] [µg/mL] | MIC PM 12080 [10] [µg/mL]
1 | CON=C(C)[C@H](NC(=O)c1ccc(C#Cc2ccc(CNCc3ccccn3)cc2)cc1)C(=O)NO [Compound 390] | 0.4 (≈ 0.824 µM) | 1.6 (≈ 3.3 µM) | 0.8 (≈ 1.65 µM) | 0.2 (≈ 0.412 µM) | 0.8 (≈ 1.65 µM) | 0.8 (≈ 1.65 µM) | 3.1 (≈ 6.38 µM) | ≤ 0.1 | 0.4 (≈ 0.824 µM) | 0.2 (≈ 0.412 µM)
2 | COCCNCc1ccc(C#Cc2ccc(C(=O)N[C@H](C(=O)NO)C(C)(C)S(C)(=O)=O)cc2)s1 [C.313] | 0.4 (≈ 0.788 µM) | 1.6 (≈ 3.15 µM) | ≤ 0.1 | 1.6 (≈ 3.15 µM) | 0.4 (≈ 0.788 µM) | 0.8 (≈ 1.58 µM) | 0.2 (≈ 0.394 µM) | ≤ 0.1 | ≤ 0.1 | ≤ 0.1
3 | COCCNCc1ccc(C#Cc2ccc(C(=O)N[C@H](C(=O)NO)C(C)(C)O)cc2)cn1 [Compound 325] | 0.8 (≈ 1.82 µM) | 1.6 (≈ 3.63 µM) | 0.4 (≈ 0.908 µM) | 3.1 (≈ 7.04 µM) | 1.6 (≈ 3.63 µM) | 3.1 (≈ 7.04 µM) | 1.6 (≈ 3.63 µM) | 0.8 (≈ 1.82 µM) | ≤ 0.1 | 0.8 (≈ 1.82 µM)
4 | Cc1ccc(CNCc2ccc(C#Cc3ccc(C(=O)N[C@H](C(=O)NO)C(C)(C)S(C)(=O)=O)cc3)cc2)cc1 [Compound 272] | 0.8 (≈ 1.46 µM) | 0.4 (≈ 0.73 µM) | ≤ 0.1 | 1.6 (≈ 2.92 µM) | 0.2 (≈ 0.365 µM) | 0.8 (≈ 1.46 µM) | ≤ 0.1 | 0.2 (≈ 0.365 µM) | ≤ 0.1 | ≤ 0.1
5 | CON=C(C)[C@H](NC(=O)c1ccc(C#Cc2ccc(CNC3CCC3)cc2)cc1)C(=O)NO [Compound 385] | 3.1 (≈ 6.91 µM) | 6.3 (≈ 14 µM) | 1.6 (≈ 3.57 µM) | 1.6 (≈ 3.57 µM) | 3.1 (≈ 6.91 µM) | 6.3 (≈ 14 µM) | 25 (≈ 55.7 µM) | 0.2 (≈ 0.446 µM) | 0.8 (≈ 1.78 µM) | 0.4 (≈ 0.892 µM)
6 | CON=C(C)[C@H](NC(=O)c1ccc(C#Cc2ccc(CNCC3CCCO3)cc2)cc1)C(=O)NO (some centres unmarked) [Compound 394] | 3.1 (≈ 6.48 µM) | 6.3 (≈ 13.2 µM) | 1.6 (≈ 3.34 µM) | 0.8 (≈ 1.67 µM) | 3.1 (≈ 6.48 µM) | 3.1 (≈ 6.48 µM) | 6.3 (≈ 13.2 µM) | 0.2 (≈ 0.418 µM) | 0.8 (≈ 1.67 µM) | 0.4 (≈ 0.836 µM)
7 | CC(C)(C(NC(=O)c1ccc(C#Cc2ccc(CNCc3ccc(C(F)(F)F)cc3)cc2)cc1)C(=O)NO)[N+](=O)[O-] (centres unmarked) [Compound 279] | 3.1 (≈ 5.45 µM) | 6.3 (≈ 11.1 µM) | 1.6 (≈ 2.81 µM) | 6.3 (≈ 11.1 µM) | 6.3 (≈ 11.1 µM) | 6.3 (≈ 11.1 µM) | 0.4 (≈ 0.704 µM) | 1.6 (≈ 2.81 µM) | 0.4 (≈ 0.704 µM) | 1.6 (≈ 2.81 µM)
8 | CC(C)([C@H](NC(=O)c1ccc(C#Cc2ccc(CNC3CC3)nc2)cc1)C(=O)NO)S(C)(=O)=O [Compound 348] | 0.8 (≈ 1.65 µM) | 0.8 (≈ 1.65 µM) | ≤ 0.1 | 3.1 (≈ 6.4 µM) | 0.8 (≈ 1.65 µM) | 0.8 (≈ 1.65 µM) | 0.8 (≈ 1.65 µM) | ≤ 0.1 | ≤ 0.1 | ≤ 0.1
9 | O=C(N[C@@H](CO)C(=O)NO)c1ccc(C#Cc2ccc(CN3CCCCC3)cc2)cc1 [Compound 156] | 6.3 (≈ 14.9 µM) | 6.3 (≈ 14.9 µM) | 1.6 (≈ 3.8 µM) | 12.5 (≈ 29.7 µM) | 12.5 (≈ 29.7 µM) | 12.5 (≈ 29.7 µM) | 0.8 (≈ 1.9 µM) | 1.6 (≈ 3.8 µM) | ≤ 0.1 | 1.6 (≈ 3.8 µM)
10 | CC(C)(C(NC(=O)c1ccc(C#Cc2ccc(CNCc3ccccc3)cc2)cc1)C(=O)NO)[N+](=O)[O-] (centres unmarked) [Compound 276] | 0.8 (≈ 1.6 µM) | 0.8 (≈ 1.6 µM) | ≤ 0.1 | 0.8 (≈ 1.6 µM) | 0.4 (≈ 0.799 µM) | 0.8 (≈ 1.6 µM) | ≤ 0.1 | 0.4 (≈ 0.799 µM) | ≤ 0.1 | ≤ 0.1
11 | CC(C)(O)[C@H](NC(=O)c1ccc(C#Cc2ccc(CNCc3ccccn3)cc2)cc1)C(=O)NO [Compound 230] | 0.8 (≈ 1.69 µM) | 0.4 (≈ 0.846 µM) | ≤ 0.1 | 1.6 (≈ 3.39 µM) | 0.8 (≈ 1.69 µM) | 0.8 (≈ 1.69 µM) | ≤ 0.1 | ≤ 0.1 | ≤ 0.1 | ≤ 0.1

Reference: patent US11034650B2, “Compounds useful for treating a Mannheimia haemolytica or Histophilus somni infection” (Intervet Inc., priority 2016, dated 2021)
